Reference: article PMC12592418, “Therapeutic potential of red bean (phaseolus vulgaris) peptides: anticancer, antihypertension, and antioxidant activities” (Scientific Reports, 2025)
No end group written: not given here.

How the values were obtained:
CaCO2 cells = assay: MTT cell viability assay, CaCO2; format: cell-based, human; conditions: synthetic peptide 100 µg/ml, 24 h, mean ± SD, n = 3
Method: (§1) CaCO2, HepG2, MCF-7, NCI-H460, SiHa, SW620, and Vero cells were obtained from the American Type Culture Collection (ATCC, Manassas, VA, USA). Cells were cultured in Dulbecco’s Modified Eagle’s Medium (DMEM; PAA, Pasching, Austria), supplemented with 10% (v/v) fetal bovine serum (Gibco, South America), 10 mM HEPES (HyClone, Utah, USA), 2 mM L-glutamine, and 100 U/mL penicillin and 100 µg/mL streptomycin. Cultures were maintained at 37 °C in a humidified atmosphere containing 5% CO₂.
(§2) The anticancer activity of protein hydrolysates and synthetic peptides against CaCO2, HepG2, MCF-7, NCI-H460, SiHa, SW620, and Vero cells were evaluated using the MTT assay. Cells were seeded into 96-well plates (Nunc™, Roskilde, Denmark) at a density of 2 × 10⁴ cells per well, and allowed to adhere. Following seeding, cells were treated with 100 µg/mL of protein hydrolysates or synthetic peptides for 24 h, while untreated cells served as controls. After 24 h, 20 µL of MTT solution (5 mg/mL; Sigma, St. Louis, MO, USA) was added to each well and incubated for an additional 3 h. The supernatant was then removed, and 100 µL of DMSO was added to each well to dissolve the formazan crystals. Optical density (OD) was measured at 540 nm using a microplate reader (Rayto RT-2100 C, China). Cell viability was calculated using the equation: (OD of treated cells/OD of untreated cells) × 100.
(§3) The IC50 values were calculated from a fitted semi-log response curve, plotting cell viability percentages against concentration. These values were determined using the AAT-Bioquest IC50 calculator (https://www.aatbio.com/tools/ic50-calculator).

HepG2 cells = assay: MTT cell viability assay, HepG2; format: cell-based, human; conditions: synthetic peptide 100 µg/ml, 24 h, mean ± SD, n = 3
Method: as §1, §2, §3

MCF-7 cells = assay: MTT cell viability assay, MCF-7; format: cell-based, human; conditions: synthetic peptide 100 µg/ml, 24 h, mean ± SD
Method: as §1, §2, §3

NCI-H460 cells = assay: MTT cell viability assay, NCI-H460; format: cell-based, human; conditions: synthetic peptide 100 µg/ml, 24 h, mean ± SD
Method: as §1, §2, §3

SiHa cells = assay: MTT cell viability assay, SiHa; format: cell-based, human; conditions: synthetic peptide 100 µg/ml, 24 h, mean ± SD, n = 3
Method: as §1, §2, §3

SW620 cells = assay: MTT cell viability assay, SW620; format: cell-based, human; conditions: synthetic peptide 100 µg/ml, 24 h, mean ± SD
Method: as §1, §2, §3

Vero cells = assay: MTT cell viability assay, Vero; format: cell-based, monkey; conditions: synthetic peptide 100 µg/ml, 24 h, mean ± SD, n = 3
Method: as §1, §2, §3

[1] = tested on: angiotensin-converting enzyme (ACE); assay: ACE inhibitory activity assay (HHL substrate); format: biochemical; conditions: peptide 100 µg/ml, ACE 0.2 U/mL, 5 mM HHL, phosphate buffer pH 6.8, 37 °C, mean ± SD, n = 3
Method: The method utilized here is a spectrophotometric method based on the commonly used method introduced by Cushman and Cheung (1971)[45]. The 5 ul of sample was preincubated with 45 ul of ACE enzyme (0.2 U/mL) in 100 mM Phosphate buffer (pH 6.8) and incubated for 10 min at 37 °C. Enzyme activity was assayed by monitoring the hydrolysis of hippuryl-L-histidyl-L-leucine (HHL). After adding 50 µL of a 5 mM HHL substrate solution, the increase in absorbance at 405 nm was measured every minute for 15 min at 37 °C using a 96-well microplate reader. The initial velocity was determined from the linear portion of the curve, and the inhibitory activity was expressed as a percentage calculated using the following equation:
% inhibition = (1-(B-b)/(A-a)) x 100,
where A is an initial velocity of the control reaction with enzyme (control), a is an initial velocity of the control reaction without enzyme (control blank), B is an initial velocity of the enzyme reaction with sample and b is an initial velocity of the reaction with sample but without enzyme (sample blank).

[2] = ABTS radical scavenging assay; format: physicochemical; conditions: peptide 100 µg/ml, 5 min in the dark, absorbance 750 nm, mean ± SD, n = 3
Method: Radical scavenging antioxidant activity was determined according to the ABTS radical scavenging activity following the method described by Re et al.[46] with slight modifications. Briefly, the solution of ABTS radical was prepared from the reaction between 7 mM ABTS (2,2-azino-bis (3-ethylbenzothiazoline-6-sulphonic acid) diammonium salt) and 2.45 mM ammonium persulphate. The resulting ABTS solution was diluted with distilled water to achieve an optical density of 0.7 at 750 nm. Then, a sample or standard of 10 µL was mixed with 190 µL of ABTS solution and incubated for 5 min in the dark. The absorbance was measured at 750 nm by a microplate reader (Rayto RT-2100 C, China). Ascorbic acid was used as the standard.

[3] = DPPH radical scavenging assay; format: physicochemical; conditions: peptide 100 µg/ml, 0.1 mM DPPH, 30 min in the dark, room temperature, absorbance 517 nm, mean ± SD, n = 3
Method: The DPPH radical scavenging activity of the sample was evaluated following the protocol by Muangrod et al.[48] with slight modifications. Briefly, 190 µL of 0.1 mM DPPH was mixed with 10 µL of the sample or standard ascorbic acid in each well and incubated at room temperature in the dark for 30 min. The absorbance of the mixture was measured at 517 nm using a microplate reader (Rayto RT-2100 C, China). Ascorbic acid was used as the standard. Results were expressed as micrograms ascorbic acid equivalent (µg AAE g^−1).

[4] = FRAP ferric ion-reducing antioxidant power assay; format: physicochemical; conditions: peptide 100 µg/ml, 30 min in the dark, absorbance 593 nm, mean ± SD, n = 3
Method: The ferric ion-reducing antioxidant power assay was analyzed according to the method by Rumpf et al.[47] with minor modifications. Briefly, the FRAP reagent was prepared from 300 mM sodium acetate (pH 3.6) and 10 mM TPTZ (2,4,6-tris (2-pyridyl)-s-triazine) in 40 mM HCl and 20 mM ferric chloride at the ratio of 10:1:1, respectively. Then, a 10 µL aliquot of the sample or standard was mixed with 190 µL of the FRAP reagent before incubating in the dark for 30 min. The absorbance was measured at 593 nm using a microplate reader (Rayto RT-2100 C, China). Ascorbic acid was used as the standard. Results were expressed as micrograms of ascorbic acid equivalent per gram (µg AAE g^−1).

| Substance | Inhibitory percentage, CaCO2 (CaCO2 cells) | Inhibitory percentage, HepG2 (HepG2 cells) | Inhibitory percentage, MCF-7 (MCF-7 cells; n = 3) | Inhibitory percentage, NCI-H460 (NCI-H460 cells; n = 3) | Inhibitory percentage, SiHa (SiHa cells) | Inhibitory percentage, SW620 (SW620 cells; n = 3) | Inhibitory percentage, Vero (Vero cells) | Antihypertension (%), percentage inhibition of ACE ([1]; SD) | Antioxidant, ABTS [2] | Antioxidant, DPPH [3] | Antioxidant, FRAP [4] | Inhibitory percentage, NCI-H460 (NCI-H460 cells; n = 3, SD) | Inhibitory percentage, SW620 (SW620 cells; n = 3, SD) | Inhibitory percentage, MCF-7 (MCF-7 cells; n = 3, SD) | Antihypertension (%), percentage inhibition of ACE [1] |
| --- | --- | --- | --- | --- | --- | --- | --- | --- | --- | --- | --- | --- | --- | --- | --- |
| RRLRILL [RB-6] | 19.32±0.18% | 0% | 0% | 0% | 9.72±0.02% | 0% | 0% | 46.67±0.36% | 595.33±18.41 µg ascorbic acid equivalent | 584.66±4.15 µg ascorbic acid equivalent | 120.46±0.07 µg ascorbic acid equivalent | – | – | – | – |
| SPTPPKNVPF [RB-3] | 7.88±0.08% | 0% | 0% | 0% | 12.36±0.02% | 0% | 0% | 20.00±1.02% | 274.73±0.27 µg ascorbic acid equivalent | 227.13±1.55 µg ascorbic acid equivalent | 58.05±0.09 µg ascorbic acid equivalent | – | – | – | – |
| GSEIRSTSDDVL [RB-4] | 11.27±0.07% | 0% | 0% | – | 11.45±0.00% | 0% | 0% | 13.33±0.60% | 539.58±3.43 µg ascorbic acid equivalent | 424.61±1.53 µg ascorbic acid equivalent | 128.47±0.86 µg ascorbic acid equivalent | 6.08±0.01% | – | – | – |
| APANGSAF [RB-5] | 13.21±0.04% | 0% | 0% | – | 8.75±0.00% | – | 0% | 43.33±0.33% | 412.60±0.71 µg ascorbic acid equivalent | 374.62±13.56 µg ascorbic acid equivalent | 87.48±0.20 µg ascorbic acid equivalent | 10.58±0.03% | 3.58±0.04% | – | – |
| NLRKLKRL [RB-1] | 7.33±0.02% | 0% | – | – | 4.64±0.02% | 0% | 0% | 20.00±2.82% | 367.86±25.39 µg ascorbic acid equivalent | 373.74±12.01 µg ascorbic acid equivalent | 189.53±6.59 µg ascorbic acid equivalent | 5.40±0.01% | – | 2.10±0.00% | – |
| RGSKQRQKRQW [RB-7] | 5.73±0.02% | 0% | 0% | – | 8.78±0.08% | – | 0% | 60.00±1.29% | 507.53±13.49 µg ascorbic acid equivalent | 805.35±5.83 µg ascorbic acid equivalent | 187.50±1.88 µg ascorbic acid equivalent | 1.74±0.01% | 1.47±0.01% | – | – |
| DHPTGGL [RB-2] | 8.99±0.08% | 0% | 0% | 0% | 10.28±0.02% | 0% | 0% | – | 284.62±0.75 µg ascorbic acid equivalent | 239.10±0.83 µg ascorbic acid equivalent | 59.87±0.06 µg ascorbic acid equivalent | – | – | – | 0% |
